This series can be described thus: gradient 5% acetonitrile 3 min, to 50% in 2 min, to 85% in 15 min, held 3 min, 100 µL/min. The following applies: column: Zorbax Extend-C18 2.1 x 50 mm; eluents: water / acetonitrile, 0.1% formic acid. An outline of the steps:
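Over 3 months, pure standards in mixtures of ~100 molecules were run by HPLC coupled to a quadrupole time-of-flight mass spectrometer in positive and negative ionization mode. The column was a Zorbax Extend-C18 (2.1 × 50 mm, 1.8 μm) at 100 μL/min, eluted with water and acetonitrile each holding 0.1% formic acid, with 40 μL dead and 900 μL dwell volumes. Retention time was determined from adduct peaks chosen by software and checked manually.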
In turn, `C=CCNC(=O)Cc1cn2cc(Br)ccc2n1` had an RP-LC retention time of 557 s.

`CN1CCN(CCC(=O)N2CCC(c3c[nH]c4ccccc34)(c3c[nH]c4ccccc34)CC2)CC1` returned an RP-LC retention time of 625 s.

`CCOC(=O)C1=C(C)NC2=C(C(=O)C(C(=O)OC)C(C)C2)C1c1cccc(OC)c1` (centres undefined) yielded an RP-LC retention time of 846 s.

`CCOC(=O)C1CCN(S(=O)(=O)c2ccc3onc(C(=O)N4CCCC4)c3c2)CC1` returned an RP-LC retention time of 993 s.

As to `CC1Oc2ccc(-c3csc(NC(=O)c4cccs4)n3)cc2N(C)C1=O` (centres undefined), the RP-LC retention time was 949 s.

In turn, `CCNC(=O)Nc1ccc2c(c1)CN(Cc1scnc1C)CCO2` registered an RP-LC retention time of 566 s.

Consider `COCCCNC(=O)Cn1c(=O)c2cccn2c2ccc(F)cc21`, for which the RP-LC retention time worked out at 689 s.

The compound `CCc1nnc(-c2ccc(S(=O)(=O)N3CCN(CC(C)C)CC3)o2)o1` returned an RP-LC retention time of 612 s.

`O=C(NCCCN1CCCCC1)c1ccc2ccnc(N3CCN(c4ccc(Cl)cc4)CC3)c2c1` yielded an RP-LC retention time of 645 s.

`CCC1Oc2ccc(S(=O)(=O)N3CCC(C(=O)N4CCCC4)CC3)cc2NC1=O` (centres undefined) came in with an RP-LC retention time of 730 s.

`COc1ccccc1Nc1c(-c2ccc(Cl)cc2)nc2cnccn12` yielded an RP-LC retention time of 1020 s.

Compound `COCc1ccc(C(=O)Nc2ccnc3ccc(Cl)cc23)o1` had an RP-LC retention time of 616 s.

For the compound `Cc1ccsc1C(=O)N1CCN(c2ccc(-c3nc(C)c(C)s3)cn2)CC1`, the RP-LC retention time came to 1120 s.

`CCOC(=O)C1=C(CN(C)Cc2ccccc2)NC(=O)NC1c1ccccc1` (centres undefined): the RP-LC retention time was found to be 652 s.

As to `O=C(CSc1ccncc1)NCc1cc(-c2ccco2)on1`, the RP-LC retention time was 552 s.

For `Cc1ccc(CNC(=O)C2(C)CN(S(=O)(=O)c3ccccc3)CC(=O)N2c2cccc(F)c2)cc1` (centres undefined), the RP-LC retention time worked out at 962 s.

Regarding `Cc1ccc(Nc2ccc(NC(=O)c3ccccc3F)cc2)nn1`, the RP-LC retention time stood at 568 s.

`COc1cccc(C(=O)N2CCCn3nc(-c4ccc(C)cc4)cc3C2)c1OC` yielded an RP-LC retention time of 885 s.

`O=C(NCCc1csc(-c2ccc(F)cc2)n1)Nc1ccccc1C(F)(F)F` came in with an RP-LC retention time of 948 s.

Compound `CCc1noc(-c2ccc(-n3ncc(C(=O)N4CCCCCC4)c3C)nc2)n1` came in with an RP-LC retention time of 1010 s.

The compound `CCc1ccc(NC(=O)CN2CCN(Cc3ccc(F)cc3)C(=O)C2=O)cc1` gave an RP-LC retention time of 818 s.

Compound `COc1cccc(-c2csc(Nc3cc(C)ccn3)n2)c1` yielded an RP-LC retention time of 810 s.

As for `O=C(c1ccc(F)cc1)N(CC1CCOC1)C1CC1` (centres undefined), the RP-LC retention time is 747 s.

In the case of `O=C(C1=CN(c2ccc(Br)cc2)c2ccccc2S1(=O)=O)N1CCCC1`, the RP-LC retention time was 838 s.

For the compound `COc1cccc(N2C(=O)N(Cc3cccc(F)c3)S(=O)(=O)c3cccnc32)c1`, the RP-LC retention time came out at 1010 s.

Turning to `CCOC(=O)c1nc(NCCc2ccc(OCC)c(OCC)c2)c2ccccc2n1`, the RP-LC retention time came to 801 s.

Regarding `Cc1cccc(N2CCN(C(=O)CN3CCN(Cc4ccccc4)C3=O)CC2)c1`, the RP-LC retention time worked out at 853 s.

For `O=C(Nc1ccc(Cl)cc1)c1c(O)c2cccnc2n(Cc2ccccc2)c1=O`, the RP-LC retention time is 1290 s.

Compound `CCc1nn(CC(=O)N2CCN(c3ccccn3)CC2)c(=O)c2cc3sccc3n12` displayed an RP-LC retention time of 612 s.

The compound `CCOC(=O)CN1N=C(C(=O)N2CCC(C)CC2)S(=O)(=O)c2ccc(C)cc21` showed an RP-LC retention time of 939 s.

`Cc1ccc(-c2nnc(Cc3nc(-c4cccc(C(F)(F)F)c4)no3)o2)cc1C` had an RP-LC retention time of 1220 s.

For `CCOc1ccc(NC(=O)c2c(C)sc3ncnc(N4CCCC(C)C4)c23)cc1` (centres undefined), the RP-LC retention time worked out at 1200 s.

The compound `Cc1nnc(N2CCCC(C(=O)NCc3cccs3)C2)c2nn(-c3ccccc3)c(C)c12` (centres undefined) registered an RP-LC retention time of 702 s.

`CNC(=O)Nc1ccc(C2(C(=O)N3CCN(c4ccccc4F)CC3)CCC2)cc1` returned an RP-LC retention time of 799 s.

`CNC(=O)N1CCCN(C2=NS(=O)(=O)C(c3ccc(C)c(C)c3)=C2C)CC1` gave an RP-LC retention time of 711 s.

Regarding `O=C1NCCCn2cc(S(=O)(=O)Nc3ccc(F)c(F)c3)cc21`, the RP-LC retention time was found to be 676 s.

`O=C(Nc1nnc(SCc2ccc(Br)cc2)s1)c1ccccc1F` showed an RP-LC retention time of 1020 s.

The compound `O=C(Nc1cnc(-c2ccc(F)cc2)nc1)c1ccccc1` returned an RP-LC retention time of 961 s.

Regarding `CC(=O)N1CCc2cc(N3CC(C(=O)NCc4ccccc4)CC3=O)ccc21` (centres undefined), the RP-LC retention time was 671 s.

For `CCc1ccc2oc(C(=O)NCC(c3ccc(OC)cc3)N(C)C)cc(=O)c2c1` (centres undefined), the RP-LC retention time stood at 656 s.

`Cc1ccc(NC(=O)Cn2nc(N3CCCC3)c3ccccc3c2=O)c(F)c1`: the RP-LC retention time was 885 s.

As to `CN1CCCCCCN(C(=O)c2cnccn2)[C@H]2CCC[C@H]2C1=O`, the RP-LC retention time amounted to 649 s.

On to `Cc1ccccc1Oc1nccnc1N1CCC(C(=O)NC(C)CCc2ccccc2)CC1` (centres undefined), for which the RP-LC retention time was 1120 s.

`O=C(Cc1ccc(Cl)cc1)Nc1nc(-c2ccccc2)cs1` registered an RP-LC retention time of 1020 s.

In the case of `Cc1ccc(CN2CC(c3nc(CCOCc4ccccc4)no3)C2)s1`, the RP-LC retention time came to 716 s.

Turning to `O=C(CCC1CCCC1)Nc1ccc(N2CCN(C3CCCC3)C2=O)nc1`, the RP-LC retention time worked out at 884 s.

Turning to `CCc1c(C2CCN(C(=O)c3ccc4c(c3)OCO4)CC2)noc1N`, the RP-LC retention time turned out to be 696 s.

Turning to `CCOc1ccc(C(=O)n2nc(C)c(S(=O)(=O)N3CCC(C)CC3)c2C)cc1`, the RP-LC retention time worked out at 1280 s.

As to `COc1ccc(NC(=O)C2c3ccccc3C(=O)N3CCC(C)CC23)c(OC)c1` (centres undefined), the RP-LC retention time is 867 s.

Regarding `CC(=O)Nc1cccc(NC(=O)C2CC(=O)N(c3n[nH]c4ccccc34)C2)c1` (centres undefined), the RP-LC retention time is 625 s.

Turning to `O=S(=O)(Nc1cc(F)ccc1F)c1c[nH]c2ncccc12`, the RP-LC retention time was found to be 715 s.

Compound `Cc1ccc(N2CC(C(=O)NCc3nn(C)c4ccccc34)CC2=O)cc1` (centres undefined) displayed an RP-LC retention time of 782 s.

Turning to `Cc1nnc(NC(=O)C2CCN(C(=O)NC3CC3)CC2)s1`, the RP-LC retention time worked out at 582 s.

Compound `CC1CCN(Cc2nc(-c3ccc(N4CCSCC4)nc3)no2)CC1` came in with an RP-LC retention time of 672 s.

Turning to `Cc1ccc(-c2csc(Nc3ccc(F)cn3)n2)cc1C`, the RP-LC retention time stood at 1180 s.

Regarding `COc1ccc(-c2cn3c(CC(=O)Nc4ccc(F)c(Cl)c4)csc3n2)cc1`, the RP-LC retention time worked out at 832 s.

In turn, `CN1C(=O)NC2(CCN(S(=O)(=O)c3cccs3)CC2)C1=O` returned an RP-LC retention time of 640 s.

`Cc1ccc(Nc2nc(C)cc(N3CCN(C(=O)Nc4ccc(F)c(Cl)c4)CC3)n2)cc1` returned an RP-LC retention time of 811 s.

`Cc1csc(NC(=O)C2CCN(S(=O)(=O)c3cc(C(=O)N4CCCC4)n(C)c3)CC2)n1` showed an RP-LC retention time of 697 s.

Turning to `Cc1nc([C@@H]2CN(S(=O)(=O)c3ccc(Cl)s3)C[C@H]2C(N)=O)n[nH]1`, the RP-LC retention time stood at 631 s.

The compound `Cc1cc(OCC(=O)NCc2ccccc2Br)nc(N2CCCC2)n1` yielded an RP-LC retention time of 640 s.

On to `CNC(=O)C1CCCN(c2nc3ncn(CC(=O)NCCC4=CCCCC4)c(=O)c3s2)C1` (centres undefined), for which the RP-LC retention time stood at 685 s.

As to `CSc1ccccc1-c1nnc(NC(=O)C(c2ccccc2)c2ccccc2)o1`, the RP-LC retention time worked out at 895 s.

The compound `COc1cc(-c2cccc(Cl)c2)nc2ccc(NC(=O)c3ccco3)cc12` displayed an RP-LC retention time of 790 s.

Consider `O=C(Cc1ccccc1Cl)N1CCc2nc[nH]c2C1`, for which the RP-LC retention time stood at 584 s.

For the compound `CCNc1cc(N2CCCC(CCC(=O)NC(C)c3cccs3)C2)ncn1` (centres undefined), the RP-LC retention time stood at 661 s.

Regarding `Clc1ccc(Sc2c(-c3ccc(Br)cc3)nc3ccccn23)cc1`, the RP-LC retention time was 1290 s.

`COc1ccc(OCC(=O)Nc2nc(C)cc(C)c2-c2noc(C)n2)cc1` returned an RP-LC retention time of 783 s.

`CC(NC(=O)Cn1cnc(-c2noc(-c3ccncc3)n2)c1)c1ccccc1` (centres undefined) came in with an RP-LC retention time of 678 s.

For the compound `O=C(NCc1ccc(F)cc1Cl)c1cc(C2CC2)n2nccc2n1`, the RP-LC retention time worked out at 1010 s.

With `CC(Oc1ccccc1F)C(=O)NCCOc1ccc(-c2ccccn2)nn1` (centres undefined), the RP-LC retention time stood at 612 s.

Regarding `O=C(NCCn1c(=O)n(Cc2ccccc2)c2cccnc21)c1ccsc1`, the RP-LC retention time turned out to be 750 s.

For the compound `Cc1nnc(N2CCCC(C(=O)NCCN3CCOCC3)C2)c2nn(-c3ccc(Cl)cc3)c(C)c12` (centres undefined), the RP-LC retention time came out at 590 s.

The compound `Cc1nc(CNC(=O)[C@H]2CCCN2S(=O)(=O)c2ccc3c(c2)oc(=O)n3C)cs1` came in with an RP-LC retention time of 655 s.

`O=C(NCc1ccc(Cl)cc1)C(=O)NCC1(c2cccs2)CCCC1` came in with an RP-LC retention time of 1120 s.

With `C[C@@H]1C/C=C/C=C/C=C/C=C/[C@H](O[C@@H]2O[C@H](C)[C@@H](O)[C@H](N)[C@@H]2O)C[C@@H]2O[C@](O)(C[C@@H](O)C[C@H]3O[C@@H]3/C=C/C(=O)O1)C[C@H](O)[C@H]2C(=O)O`, the RP-LC retention time was 686 s.

Regarding `CC(=O)N(C1CCOCC1)C1CCN(S(=O)(=O)c2ccccc2)CC1`, the RP-LC retention time was determined as 712 s.

Take `Cc1ccc(C(=O)NCCc2c[nH]c3ccc(F)cc23)cc1`: the RP-LC retention time worked out at 841 s.

`Cc1ccc(-c2coc(-c3ccc(NC(=O)NCc4ccc(F)cc4)cc3)n2)c(C)c1`: the RP-LC retention time worked out at 1180 s.

For the origin of these results see the METLIN SMRT retention time set (Domingo-Almenara et al. 2019).
